Laboratory results taken from patent publication US7723347B2, “Substituted phenylamino-pyrimidines” (Bayer Schering Pharma Aktiengesellschaft, priority 2004, dated 2010).

Experiments:
[1] = test system: isolated rings of the saphenous artery of rabbits; assay: Vessel-relaxing action in vitro, phenylephrine-induced contractions of isolated saphenous artery rings; conditions: Oryctolagus cuniculus; concentration reducing phenylephrine-induced contraction (3×10^−8 g/ml) of rabbit saphenous artery rings by 50%
Experimental: (§1) The inhibition of the enzyme is investigated in an in vitro assay with recombinant Rho kinase II. The vessel-relaxing action is determined using phenylephrine-induced contractions of isolated rings of the saphenous artery of rabbits.
Vessel-Relaxing Action In Vitro
Individual 3-mm-wide rings of the isolated saphenous artery of rabbits are introduced into 5 ml organ baths with Krebs-Henseleit solution (37° C., gassed with carbogen). The vessel tone is monitored isometrically and registered. Contractions are induced by addition of 3×10^−8 g of phenylephrine/ml, which is washed out again after 4 min. After a number of control cycles, the rings are pre-incubated with the substance to be examined, with the dosage being increased for each further cycle, and the subsequent contraction is compared to the intensity of the last control contraction. The concentration required to reduce the intensity of the control value by 50% (IC50) is calculated.

[2] = molecular target: recombinant Rho kinase II (ROKα) (UniProt Q62868); assay: Inhibition of recombinant Rho kinase II (ROKα), 33P uptake into S6 substrate peptide; assay type: biochemical; conditions: Rho-kinase-catalyzed uptake of 33P into S6 peptide, 37° C., vs solvent control
Experimental: as §1
Inhibition of Recombinant Rho Kinase II (ROKα)
The activity of Rho kinase is determined by the uptake of ^33P phosphate into a substrate peptide. To this end, commercially available Rho kinase II (Upstate Biotechnology) is pre-incubated at 37° C. in the presence of the S6 phosphate-acceptor peptide with the test substances or a solvent control for 10 min. The kinase reaction is then started by addition of ^33P-labeled ATP. After 20 min at 37° C., the reaction is stopped by addition of H3PO4. Aliquots are pipetted onto filters and the filters are washed and then covered with scintillator. The radioactivity of the ^33P-labeled peptides bound to the filter is measured in a Micro-Beta counter. The IC50 value corresponds to the concentration of a test substance at which the Rho-kinase-catalyzed uptake of ^33P into the peptide is inhibited by 50%, compared to a solvent control.

Row | IC50 [1] [nM] | IC50 [2] [nM] | Compound
1 | 8 | 3 | Cc1c[nH]c2nccc(Nc3ccc(Nc4cc(Cl)nc(N)n4)cc3F)c12 [Example 10, 6-Chloro-N^4-{3-fluoro-4-[(3-methyl-1H-pyrrolo[2,3-b]pyridin-4-yl)amino]phenyl}pyrimidine-2,4-diamine]
2 | 86 | 7 | Nc1nc(Nc2ccc(Cc3ccnc4[nH]ccc34)c(F)c2)cc(C(F)(F)F)n1 [Example 8, N^4-[3-Fluoro-4-(1H-pyrrolo[2,3-b]pyridin-4-ylmethyl)phenyl]-6-(trifluoromethyl)pyrimidine-2,4-diamine]
3 | 3 | 4 | Cc1c[nH]c2nccc(Nc3ccc(Nc4cc(C(F)(F)F)nc(N)n4)cc3F)c12 [Example 11, N^4-{3-Fluoro-4-[(3-methyl-1H-pyrrolo[2,3-b]pyridin-4-yl)amino]phenyl}-6-(trifluoromethyl)pyrimidine-2,4-diamine]
